Where two headings read alike, the source gives them in different places.
Tests used:
[1] = biological target: CXCR4 (Homo sapiens, UniProt P61073); experiment: β-arrestin recruitment, 384-well, Tango CXCR4-bla U2OS cells, normalized to SDF-1α; assay type: cell-based; parameters: host or cells: U2OS; details: for ß-arrestin recruitment Emax (%): normalized to maximal SDF-1α response; for Emax: U2OS
Protocol: Tango™ CXCR4-bla U2OS Cells (Invitrogen; K1779) were used for (β-arrestin recruitment assays and maintained as a monolayer culture in McCoy's 5a (Corning; 10-050-CV) supplemented with 10% dialyzed Fetal Bovine Serum (Gibco; 26400-044), 0.1 mM MEM Non-essential amino acids solution, 25 mM HEPES solution (Corning; 25-060-CI), 1 mM Sodium Pyruvate (Gibco; 11360-070), 200 μg/mL Zeocin selection reagent (Gibco; R25001), 50 μg/mL Hygromycin B (Gibco, 10687010), and 100 μg/mL Geneticin (G418 Sulfate) (Gibco, 10131035). U2OS cells were subcultured twice weekly by 0.05% Trypsin-EDTA treatment (Corning; 25-051-CI) and passaged to continue exponential growth phase for cell signaling assays. All cell cultures were maintained in cell culture incubators at 37° C. with 5% CO2. CHO-K1 CXCR4 cells (DiscoverX, Fremont, CA, USA) were used for cAMP inhibition assays and maintained as a monolayer culture in DMEM/F12 (Corning; 10-091-CV) supplemented with 10% Fetal Bovine Serum (Corning; 35-011-CV) and 100IU penicillin, […] streptomycin sulfate (Corning; 30-002-CI) and […] G418 (Gibco; 101310350. Cells were subculture 2 times weekly by o.o5% Trypsin-EDTA treatment (Corning; 25-051-CI) and passaged to continue exponential growth phase for cell signaling assays. All cell cultures were maintained in cell culture incubators at 37° C. with 5% CO2.CEM-CCRF cells (ATCC CCL-119) were used in both the migration and calcium flux assays and were cultured in growth media consisting of RPMI 1640 (Corning; 10-040-CV) supplemented with 10% Fetal Bovine Serum (Corning; 35-011-CV), and 100 IU penicillin, […] streptomycin sulfate (Corning; 30-002-CI). Cells were maintained in suspension and sub-cultured twice weekly to maintain cell densities between 0.8×10^6 cells/mL and 2.5×10^6 cells/mL to maintain exponential growth phase. Cells were harvested for use in migration and calcium flux assays at 2.0×10^6 cells/mL to 2.5×10^6 cells/mL and resuspended in assay media to desired density for respective experiments.
Tango™ CXCR4-bla U2OS Cells were resuspended in assay media consisting of DMEM (Corning; Corning, NY) supplemented with 1% dialyzed Fetal bovine serum, 0.1 mM MEM Non-essential amino acids solution, 25 mM HEPES solution (Corning; Corning, NY), 1 mM Sodium Pyruvate and 100 IU penicillin, […] streptomycin sulfate (Corning; Corning, NY) at a density of 3.0×10^5 cells/ml. Assay media FreeStyle 293 expression Medium (Gibco; 12338018) was used for testing the thiadiazine scaffold CXCR4 agonists. Cells suspension was dispensed at 30 μl per well into assay plate and incubated overnight in a cell culture incubator at 37° C. with 5% CO2. […] Following overnight incubation, LiveBlazer FRET B/G Loading Kit (Invitrogen; K1095) working reagent was prepared according to supplier guidelines and 6 μl of solution was dispensed into each well; 8 μL of solution for testing the thiadiazine scaffold CXCR4 agonists. Assay plate was covered and incubated in a dark place for two hours and Fluorescence Intensity was measured using the BMG LABTECH CLARIOstar Plus (BMG LABTECH Inc., Cary, NC) according to the LiveBlazer FRET B/G Loading Kit excitation and emission measurement guidelines.
Results are expressed as mean±SD for 3 to 5 independent experiments. Statistically significant differences in gene expression between two groups were assessed by Student's T-test, ANOVA with an appropriate post hoc test was be used for multiple comparisons. P<0.05 was considered to be statistically significant. All concentration response curves were analyzed to determine EC50 and Emax using the following equation:
where Y is the normalized response (0-100%), X is the log of concentration of compound tested, and the Hill slope is equal to 1.0% and 100% activity are specific to each assay. […]

[2] = system: CEM-CCRF human lymphoblast cells; experiment: Transwell migration assay in CEM-CCRF lymphoblasts; assay type: cell-based
Protocol: Thus, to confirm CXCR4 functional activity, UCUF-728 was evaluated in a 96 w transwell migration assay in CEM human lymphoblast cells.
CEM-CCRF (ATCC CCL-119) were suspended in RPMI 1640 (Corning; 10-040-CV) at 5.0×10^5 cells/mL and allowed to incubate in cell culture incubator at 37° C. with 5% CO2 for one hour. […] Plates were reassembled and placed in a cell culture incubator at 37° C. with 5% CO2 for three hours. After incubation, Multi-Screen plate was disassembled and 100 μl of solution was collected from compound receiver tray and transferred to 96 well luminescent plate (Thermo Scientific; 265302) and an equal volume of ATPLite Istep luminescence reagent (Perkin Elmer, Waltham, MA; 6016731) was added to each well. Luminescence was measured using the CLARIOstar Plus (BMG LABTECH Inc., Cary, NC).

[3] = normalized to SDF-1, read-out: TANGO β-arrestin EC50
[4] = normalized to SDF-1α, read-out: ß-arrestin recruitment EC50
[5] = Homo sapiens, read-out: Migration CEM EC50 (μM)
[6] = normalized to SDF-1, read-out: TANGO β-arrestin Emax (%)
[7] = Homo sapiens, read-out: Migration CEM EC50

Sequence of CXCR4 (P61073 whole entry): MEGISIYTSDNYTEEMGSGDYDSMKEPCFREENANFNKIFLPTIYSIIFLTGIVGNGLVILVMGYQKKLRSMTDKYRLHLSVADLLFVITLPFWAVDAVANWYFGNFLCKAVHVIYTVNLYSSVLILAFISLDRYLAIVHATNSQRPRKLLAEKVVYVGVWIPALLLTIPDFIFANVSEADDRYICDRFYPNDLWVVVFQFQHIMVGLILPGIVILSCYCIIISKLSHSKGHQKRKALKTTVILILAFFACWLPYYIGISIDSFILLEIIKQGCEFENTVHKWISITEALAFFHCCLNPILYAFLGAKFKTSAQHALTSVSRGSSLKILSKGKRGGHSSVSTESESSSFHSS

Row | SMILES | EC50 [1, 3] | Emax [1, 6] | also measured
1 | COc1ccccc1-c1nnc2n1N=C(c1ccccc1)CS2 | > 80 µM |  | 
2 | COc1ccccc1-c1nnc2n1N=C(c1ccc([N+](=O)[O-])cc1)CS2 |  |  | EC50 [1, 4]: > 80 µM
3 | COc1ccc(C2=Nn3c(nnc3-c3ccccc3OC)SC2)cc1 [Entry 1] | < 5 µM |  | TANGO β-arrestin Emax (%) ([1]; normalized to SDF-1): B (35 < B < 70); EC50 [1, 4]: 0.054 µM; ß-arrestin recruitment Emax (%) [1]: 45%
4 | CCOc1ccccc1-c1nnc2n1N=C(c1ccc(OC)cc1)CS2 [Entry 3] | < 5 µM | > 70% | Emax ([2]; Homo sapiens): 35 to 70%; EC50 [2, 5]: < 5 µM
5 | CCCCOc1ccc(C2=Nn3c(nnc3-c3ccccc3OC)SC2)cc1 [Entry 5] | < 5 µM | < 35% | EC50 [2, 5]: > 10 µM
6 | C=CCOc1ccc(C2=Nn3c(nnc3-c3ccccc3OCC)SC2)cc1 [Entry 6] | < 5 µM | > 70% | Migration CEM Emax (%) [2]: B (35 < B < 70); EC50 ([2]; read-out: Migration CEM EC50): < 5 µM
7 | C=CCOc1ccc(C2=Nn3c(nnc3-c3ccccc3OCC)SC2)cc1 [Entry 7] | < 5 µM |  | Migration CEM Emax (%) [2]: A (A ≥ 70); EC50 [2, 7]: < 5 µM; TANGO β-arrestin Emax (%) ([1]; normalized to SDF-1): A (A ≥ 70)
8 | COCCOc1ccc(C2=Nn3c(nnc3-c3ccccc3OC)SC2)cc1 [Entry 8] | < 5 µM | < 35% | Emax ([2]; Homo sapiens): < 35%; EC50 [2, 5]: < 5 µM
9 | CCOc1ccccc1-c1nnc2n1N=C(c1ccc(OC(F)(F)F)cc1)CS2 [Entry 10] | < 5 µM | > 70% | Emax ([2]; Homo sapiens): > 70%; EC50 [2, 5]: 5 to 50 µM
10 | CCOc1ccccc1-c1nnc2n1N=C(c1ccc(OC(F)F)cc1)CS2 [Entry 11] | < 5 µM | 35 to 70% | Emax ([2]; Homo sapiens): > 70%; EC50 [2, 5]: < 5 µM
11 | COc1ccccc1-c1nnc2n1N=C(c1ccc(SC)cc1)CS2 [Entry 12] | < 5 µM | > 70% | Emax ([2]; Homo sapiens): 35 to 70%; EC50 [2, 7]: < 5 µM
12 | COc1ccccc1-c1nnc2n1N=C(c1ccc(N(C)C)cc1)CS2 [Entry 13] | < 5 µM | > 70% | Emax ([2]; Homo sapiens): 35 to 70%; EC50 [2, 7]: < 5 µM; Emax ([1]; read-out: ß-arrestin recruitment Emax (%)): 91%; EC50 [1, 4]: 0.06 µM
13 | CCOc1ccccc1-c1nnc2n1N=C(c1ccc(N3CCCC3)cc1)CS2 [Entry 14] | < 5 µM | > 70% | Migration CEM Emax (%) [2]: B (35 < B < 70); EC50 [2, 7]: < 5 µM
14 | COc1ccccc1-c1nnc2n1N=C(c1ccc(C)cc1)CS2 [Entry 17] | < 5 µM | 35 to 70% | 
15 | CCc1ccc(C2=Nn3c(nnc3-c3ccccc3OC)SC2)cc1 [Entry 18] | < 5 µM | 35 to 70% | 
16 | CCCCc1ccc(C2=Nn3c(nnc3-c3ccccc3OC)SC2)cc1 [Entry 19] | 5 to 50 µM |  | TANGO β-arrestin Emax (%) ([1]; normalized to SDF-1): C (C ≤ 35); EC50 [1, 4]: 14.1 µM; ß-arrestin recruitment Emax (%) [1]: 12%
17 | COc1ccccc1-c1nnc2n1N=C(c1ccc(-c3ccccc3)cc1)CS2 [Entry 20] | 5 to 50 µM | > 70% | 
18 | COc1ccccc1-c1nnc2n1N=C(c1ccc(N3CCOCC3)cc1)CS2 [Entry 25] | 5 to 50 µM | > 70% | 
19 | CCOc1ccccc1-c1nnc2n1N=C(c1ccc(N)cc1)CS2 [Entry 26] | > 10 µM |  | 

Row | SMILES | EC50 [1, 3] | Emax [1, 6] | also measured
20 | CCOc1ccccc1-c1nnc2n1N=C(c1ccc(N3CCC3)cc1)CS2 [Entry 28] | < 5 µM | 35 to 70% | 
21 | CCOc1ccccc1-c1nnc2n1N=C(c1ccc(NC(=O)C3CCCC3)cc1)CS2 [Entry 33] | > 10 µM |  | 
22 | CCOc1ccccc1-c1nnc2n1N=C(c1ccc(NCC(=O)O)cc1)CS2 [Entry 40a] |  |  | Emax ([2]; Homo sapiens): 23%; EC50 [2, 5]: 0.32 µM
23 | CCOc1ccccc1-c1nnc2n1N=C(c1ccc(NC3CCC3)cc1)CS2 [Entry 44] | < 5 µM | > 70% | 
24 | c1ccc(C2=Nn3c(nnc3-c3ccccc3)SC2)cc1 [Entry 50] | > 80 µM |  | 
25 | COc1ccc(C2=Nn3c(nnc3-c3ccccc3)SC2)cc1 [Entry 51] | 5 to 50 µM | 35 to 70% | 
26 | COc1ccc(C2=Nn3c(nnc3-c3ccccc3)SC2)cc1OC [Entry 52] | > 80 µM |  | 
27 | COc1ccc(C2=Nn3c(nnc3-c3ccccc3OC)SC2)c(OC)c1 [Entry 54] | < 5 µM | 35 to 70% | 
28 | COc1ccc(C2=Nn3c(nnc3-c3ccccc3OC)SC2)cc1 [Entry 55] | < 5 µM | 35 to 70% | 
29 | COc1ccc(OC)c(-c2nnc3n2N=C(c2ccc(OC)c(OC)c2)CS3)c1 [Entry 56] | < 5 µM |  | TANGO β-arrestin Emax (%) ([1]; normalized to SDF-1): B (35 < B < 70)
30 | CCOc1ccccc1-c1nnc2n1N=C(c1ccc(OC)c(OC)c1)CS2 [Entry 57] | < 5 µM | 35 to 70% | 
31 | COc1cccc(-c2nnc3n2N=C(c2ccccc2)CS3)c1 [Entry 58] | > 80 µM |  | 
32 | COc1ccc(-c2nnc3n2N=C(c2ccccc2)CS3)cc1 [Entry 59] | > 80 µM |  | 
33 | COc1ccc(C2=Nn3c(nnc3-c3cccc(OC)c3)SC2)cc1 [Entry 60] | < 5 µM | 35 to 70% | 
34 | COc1cc(-c2nnc3n2N=C(c2ccccc2)CS3)cc(OC)c1OC [Entry 61] | > 80 µM |  | 
35 | COc1cc(-c2nnc3n2N=C(c2ccc(Br)cc2)CS3)cc(OC)c1OC [Entry 62] | < 5 µM |  | TANGO β-arrestin Emax (%) ([1]; normalized to SDF-1): B (35 < B < 70)
36 | COc1cccc(C2=Nn3c(nnc3-c3ccccc3OC)SC2)c1 [Entry 85] |  |  | EC50 [1, 4]: 10.7 µM; ß-arrestin recruitment Emax (%) [1]: 40%
37 | CCOc1ccccc1-c1nnc2n1N=C(c1ccc(N3CCCC3)cc1)CS2 [compound 24] |  |  | Migration CEM Emax (%) [2]: A (A ≥ 70)

Source: patent US20250136617A1 (The Regents of the University of Colorado, A Body Corporate, priority 2022, published 2025)
